In brackets after ≈: the same amount, converted by molar mass.
Columns and labels:
[1] = test system: Mycobacterium tuberculosis H37Rv (ATCC: 25177); assay: Resazurin Microplate Assay (REMA), anti-tubercular activity against H37Rv; format: cell-based; conditions: 192 h, read-out: Anti-tubercular activity (MIC) H37Rv

| SMILES | MIC [1] [µg/mL] | melting point [°C] |
| --- | --- | --- |
| Cn1c(=O)c2c(-c3c[nH]c4ccccc34)nc(=S)[nH]c2n(C)c1=O [Compound 4c, 5-(1H-Indol-3-yl)-1,3-dimethyl-7-thioxo-7,8-dihydropyrimido[4,5-d]pyrimidine-2,4(1H,3H)-dione] | 1 (≈ 2.95 µM) | 258 to 260 |
| O=c1[nH]c(=S)[nH]c2[nH]c(=S)nc(-c3c[nH]c4ccccc34)c12 [Compound 4b, 5-(1H-Indol-3-yl)-2,7-dithioxo-2,3,7,8-tetrahydropyrimido[4,5-d]pyrimidin-4(1H)-one] | 2 (≈ 6.11 µM) | 188 to 190 |
| O=c1[nH]c(=O)c2c(-c3c[nH]c4ccccc34)nc(=S)[nH]c2[nH]1 [Compound 4a, 5-(1H-Indol-3-yl)-7-thioxo-7,8-dihydropyrimido[4,5-d]pyrimidine-2,4(1H,3H)-dione] | 4 (≈ 12.8 µM) | 114 to 116 |

Source: patent publication US11976076B1 (priority 2023, dated 2024)
